Experimental data from ChEMBL document CHEMBL4020846 (J Med Chem, 2018).
The source made the active and inactive calls. The calls are words filed in the database; no cut-off is given here.

Assays:
[1] = biological target: T1, Nucleotide-binding oligomerization domain-containing protein 2 (Homo sapiens, UniProt Q9HC29); experiment: Agonist activity at human NOD2 expressed in HEK-Blue cells assessed as induction of NF-kB transcriptional activity after 18 hrs by SEAP reporter gene assay; type: cell-based
[2] = biological target: T1, Nucleotide-binding oligomerization domain-containing protein 2; experiment: Agonist activity at human NOD2 expressed in HEK-Blue cells assessed as induction of NF-kB transcriptional activity at 20 uM after 18 hrs by SEAP reporter gene assay; type: cell-based
[3] = Cytotoxicity against HEK-Blue cells over-expressing NOD2 assessed as residual metabolic activity at 20 uM after 18 hrs by CellTiter 96 aqueous one solution cell proliferation assay relative to control; type: ADME, cell-based; settings: human, read-out: Activity
[4] = biological target: T1, Nucleotide-binding oligomerization domain-containing protein 2; experiment: Agonist activity at human NOD2 expressed in HEK-Blue cells assessed as induction of NF-kB transcriptional activity at 2 uM after 18 hrs by SEAP reporter gene assay relative to control; type: cell-based
[5] = biological target: T2, Nucleotide-binding oligomerization domain-containing protein 1 (Homo sapiens) (UniProt Q9Y239); experiment: Agonist activity at human NOD1 expressed in HEK-Blue cells assessed as induction of NF-kB transcriptional activity at 20 uM after 18 hrs by SEAP reporter gene assay; type: cell-based
T2 sequence (whole entry): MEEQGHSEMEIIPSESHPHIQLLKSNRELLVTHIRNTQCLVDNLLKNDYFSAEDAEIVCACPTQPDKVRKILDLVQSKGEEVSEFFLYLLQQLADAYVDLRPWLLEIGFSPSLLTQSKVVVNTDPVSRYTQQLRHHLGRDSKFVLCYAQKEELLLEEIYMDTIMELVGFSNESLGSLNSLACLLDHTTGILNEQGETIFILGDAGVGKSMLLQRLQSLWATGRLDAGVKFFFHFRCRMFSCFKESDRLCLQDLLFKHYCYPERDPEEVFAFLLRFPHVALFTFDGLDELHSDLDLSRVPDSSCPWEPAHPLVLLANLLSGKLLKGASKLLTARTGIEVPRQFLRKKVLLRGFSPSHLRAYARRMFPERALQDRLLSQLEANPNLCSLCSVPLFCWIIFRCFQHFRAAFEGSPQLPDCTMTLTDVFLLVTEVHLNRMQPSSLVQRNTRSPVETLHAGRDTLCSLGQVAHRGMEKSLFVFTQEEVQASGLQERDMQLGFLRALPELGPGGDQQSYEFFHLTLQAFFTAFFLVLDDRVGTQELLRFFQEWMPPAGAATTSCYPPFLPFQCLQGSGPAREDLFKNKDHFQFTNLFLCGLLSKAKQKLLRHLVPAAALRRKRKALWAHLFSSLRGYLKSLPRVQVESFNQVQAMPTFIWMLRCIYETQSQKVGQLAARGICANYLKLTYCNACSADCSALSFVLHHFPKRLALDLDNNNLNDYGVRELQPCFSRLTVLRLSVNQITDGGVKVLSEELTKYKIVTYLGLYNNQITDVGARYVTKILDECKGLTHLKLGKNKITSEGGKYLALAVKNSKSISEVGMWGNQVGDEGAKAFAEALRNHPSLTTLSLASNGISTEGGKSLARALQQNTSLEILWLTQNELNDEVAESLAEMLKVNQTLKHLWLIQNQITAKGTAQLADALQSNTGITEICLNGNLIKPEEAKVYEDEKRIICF

[6] = biological target: T1, Nucleotide-binding oligomerization domain-containing protein 2; experiment: Agonist activity at human NOD2 expressed in HEK-Blue cells assessed as induction of NF-kB transcriptional activity at 2 uM after 18 hrs in presence of NOD2 antagonist GSK-669 by SEAP reporter gene assay; type: cell-based
[7] = Drug metabolism in HEK293 cells assessed as retention time at 2 uM by LC-MS analysis; type: ADME, cell-based; settings: human, hek293, 2 µM
[8] = Stability in HEK293 cells at 2 uM up to 18 hrs by LC-MS analysis; type: ADME, cell-based; settings: human, hek293, 18 h
[9] = Drug level in HEK293 cells cytosol at 2 uM after 18 hrs by LC-MS analysis; type: ADME, cell-based; settings: human
[10] = tested on: PBMC; experiment: Immunostimulatory activity in human PBMC assessed as increase in TNF-alpha release at 2 uM after 18 hrs by flow cytometry; type: functional, cell-based
[11] = tested on: PBMC; experiment: Immunostimulatory activity in human PBMC assessed as increase in IL-6 release at 2 uM after 18 hrs by flow cytometry; type: functional, cell-based
[12] = tested on: PBMC; experiment: Immunostimulatory activity in human PBMC assessed as increase in IL-10 release at 2 uM after 18 hrs by flow cytometry; type: functional, cell-based
[13] = tested on: PBMC; experiment: Immunostimulatory activity in human PBMC assessed as increase in IL-10 release at 2 uM after 18 hrs in presence of LPS by flow cytometry relative to control; type: functional
[14] = tested on: PBMC; experiment: Immunostimulatory activity in human PBMC assessed as increase in TNF-alpha release at 2 uM after 18 hrs in presence of LPS by flow cytometry relative to control; type: functional
[15] = tested on: PBMC; experiment: Immunostimulatory activity in human PBMC assessed as increase in IL-6 release at 2 uM after 18 hrs in presence of LPS by flow cytometry relative to control; type: functional
[16] = tested on: PBMC; experiment: Immunostimulatory activity in human PBMC assessed as increase in IL-2 release at 2 uM after 18 hrs in presence of LPS by flow cytometry; type: functional, cell-based
[17] = tested on: PBMC; experiment: Immunostimulatory activity in human PBMC assessed as increase in IL-4 release at 2 uM after 18 hrs in presence of LPS by flow cytometry; type: functional, cell-based
[18] = tested on: PBMC; experiment: Immunostimulatory activity in human PBMC assessed as increase in IL-17A release at 2 uM after 18 hrs in presence of LPS by flow cytometry; type: functional, cell-based
[19] = tested on: PBMC; experiment: Immunostimulatory activity in human PBMC assessed as increase in IFNgamma release at 2 uM after 18 hrs in presence of LPS by flow cytometry; type: functional, cell-based
[20] = tested on: Mus musculus; experiment: Immunoadjuvant activity in ovalbumin-induced NIH/OlaHsd mouse model of adjuvancy assessed as induction of ovalbumin-specific humoral immune response by measuring increase in anti-OVA IgG level in serum at 200 ug, sc using liposome encapsulated compound measured on day 7 post second booster by ELISA; type: functional, organism-based
[21] = tested on: Mus musculus; experiment: Immunoadjuvant activity in ovalbumin-induced NIH/OlaHsd mouse model of adjuvancy assessed as modulation of Th1/Th2-bias of induced immune response by measuring ratio of anti-OVA IgG1 to anti-OVA IgG2a level in serum at 200 ug, sc using liposome encapsulated compound measured on day 7 post second booster by ELISA (reference value: 1.69 +/- 0.28); type: functional

T1 sequence (Q9HC29 whole entry, the tested form may be a part): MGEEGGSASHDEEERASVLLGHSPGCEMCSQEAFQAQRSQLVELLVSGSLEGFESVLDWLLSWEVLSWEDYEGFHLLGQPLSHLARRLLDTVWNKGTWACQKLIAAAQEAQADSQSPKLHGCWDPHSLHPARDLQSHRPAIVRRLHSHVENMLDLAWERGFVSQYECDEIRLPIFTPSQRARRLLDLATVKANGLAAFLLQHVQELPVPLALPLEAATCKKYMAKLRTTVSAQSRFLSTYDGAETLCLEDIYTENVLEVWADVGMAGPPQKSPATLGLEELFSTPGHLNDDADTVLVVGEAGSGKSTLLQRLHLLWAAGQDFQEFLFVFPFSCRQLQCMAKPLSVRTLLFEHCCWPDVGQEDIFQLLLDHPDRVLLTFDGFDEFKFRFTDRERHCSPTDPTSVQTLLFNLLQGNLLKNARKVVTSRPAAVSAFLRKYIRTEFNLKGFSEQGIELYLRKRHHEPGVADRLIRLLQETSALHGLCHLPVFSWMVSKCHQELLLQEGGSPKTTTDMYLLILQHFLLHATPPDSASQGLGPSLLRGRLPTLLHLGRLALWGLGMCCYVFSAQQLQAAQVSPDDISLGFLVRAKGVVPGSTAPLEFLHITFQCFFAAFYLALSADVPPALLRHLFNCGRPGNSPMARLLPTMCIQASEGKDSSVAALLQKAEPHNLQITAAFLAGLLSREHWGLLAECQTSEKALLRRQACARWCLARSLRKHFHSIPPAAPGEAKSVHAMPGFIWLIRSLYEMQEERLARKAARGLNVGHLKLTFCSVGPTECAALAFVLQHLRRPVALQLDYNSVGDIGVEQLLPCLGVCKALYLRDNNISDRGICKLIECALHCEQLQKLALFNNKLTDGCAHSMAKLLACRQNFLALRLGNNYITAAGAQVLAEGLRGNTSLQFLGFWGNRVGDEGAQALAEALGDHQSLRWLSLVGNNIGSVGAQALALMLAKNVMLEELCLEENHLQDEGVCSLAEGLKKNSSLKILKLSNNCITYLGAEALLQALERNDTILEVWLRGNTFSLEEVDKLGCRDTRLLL

Activity [1] | EC50 [1] [nM] | Activity [2] | fold change (FC) [4] | Activity [5] | Activity [6] | Structure (SMILES) | viability at 18 h, 20 µM [3] [%] | other results
Dose-dependent effect | 121 | Active | 5.7 | inactive | inactive | CCOC(=O)CC[C@@H](NC(=O)[C@H](Cc1ccccc1)NC(=O)CNC(=O)/C=C/c1ccc(O)c(OC)c1)C(=O)OCC | > 80 | –
– | – | Active | 4.4 | inactive | inactive | CCOC(=O)CC[C@@H](NC(=O)[C@@H](NC(=O)CNC(=O)[C@@H]1C[C@H]1c1ccccc1)C(C)C)C(=O)OCC | > 80 | –
– | – | Active | 3.9 | inactive | inactive | CCOC(=O)CC[C@@H](NC(=O)[C@@H](NC(=O)CNC(=O)c1cc2ccc(-c3ccccc3)cc2[nH]1)C(C)C)C(=O)OCC | > 80 | –
– | 6980 | Active | 2.7 | inactive | inactive | COc1cc(/C=C/C(=O)NCC(=O)N[C@H](C(=O)N[C@H](CCC(=O)O)C(=O)O)C(C)C)ccc1O | > 80 | Retention_time [7]: 2.88 min; Stability [8]: Stable; Drug uptake [9]: 0.4 µM
Dose-dependent effect | 223 | Active | 5.7 | inactive | inactive | CCOC(=O)CC[C@@H](NC(=O)[C@@H](NC(=O)CNC(=O)/C=C/c1ccccc1)C(C)C)C(=O)OCC | > 80 | –
Dose-dependent effect | 472 | Active | 5.3 | inactive | inactive | CCOC(=O)CC[C@@H](NC(=O)[C@H](Cc1ccccc1)NC(=O)CNC(=O)[C@@H]1C[C@H]1c1ccccc1)C(=O)OCC | > 80 | –
– | – | Active | – | inactive | – | CCOC(=O)c1cc(O)ccc1NC(=O)[C@@H](NC(=O)CNC(=O)/C=C/c1ccc(O)c(OC)c1)C(C)C | > 80 | –
Dose-dependent effect | 247 | Active | 5.8 | inactive | inactive | CCOC(=O)CC[C@@H](NC(=O)[C@@H](NC(=O)CNC(=O)C1CC1c1ccc(F)c(F)c1)C(C)C)C(=O)OCC (some centres undefined) | > 80 | –
– | – | Active | – | inactive | – | COC(=O)c1ccc(C(=O)OC)c(NC(=O)[C@@H](NC(=O)CNC(=O)/C=C/c2ccc(O)c(OC)c2)C(C)C)c1 | > 80 | –
– | 2790 | Active | 4.5 | inactive | inactive | CCOC(=O)CC[C@@H](NC(=O)[C@H](C)NC(=O)CNC(=O)/C=C/c1ccc(O)c(OC)c1)C(=O)OCC | > 80 | –
– | – | Active | – | inactive | – | CCOC(=O)[C@H]1CCCC[C@@H]1NC(=O)[C@@H](NC(=O)CNC(=O)/C=C/c1ccc(O)c(OC)c1)C(C)C | > 80 | –
Dose-dependent effect | 777 | Active | 4.8 | inactive | inactive | CCOC(=O)CC[C@@H](NC(=O)[C@H](Cc1ccccc1)NC(=O)CNC(=O)c1cc2ccc(-c3ccccc3)cc2[nH]1)C(=O)OCC | > 80 | –
Dose-dependent effect | 92 | – | 5.6 | inactive | inactive | CC(=O)N[C@H]1C(O)O[C@H](CO)[C@@H](O)[C@@H]1O[C@H](C)C(=O)N[C@@H](C)C(=O)N[C@H](CCC(=O)O)C(N)=O (some centres undefined) [MURAMYL DIPEPTIDE] | > 80 | Activity [10]: Active; Activity [11]: Active; Activity [12]: Active; fold change (FC) [13]: 5; fold change (FC) [14]: 3.6; fold change (FC) [15]: 4; Activity [16]: Active; Activity [17]: Active; Activity [18]: Active; Activity [19]: Active; Activity [20]: Active; Ratio [21]: 133; log(ratio) [21]: 2.37
Dose-dependent effect | 388 | Active | 5.3 | inactive | inactive | CCOC(=O)CC[C@@H](NC(=O)[C@H](Cc1ccccc1)NC(=O)CNC(=O)/C=C/c1ccccc1)C(=O)OCC | > 80 | –
– | – | Active | – | inactive | – | CCOC(=O)C1CCN(C(=O)[C@@H](NC(=O)CNC(=O)/C=C/c2ccc(O)c(OC)c2)C(C)C)CC1 | > 80 | –
Dose-dependent effect | 172 | Active | 5.4 | inactive | inactive | CCOC(=O)CC[C@@H](NC(=O)[C@H](Cc1ccccc1)NC(=O)CNC(=O)/C=C/c1ccc(F)c(F)c1)C(=O)OCC | > 80 | –
– | – | Active | – | inactive | – | CCOC(=O)[C@@H]1CCCC[C@@H]1NC(=O)[C@@H](NC(=O)CNC(=O)/C=C/c1ccc(O)c(OC)c1)C(C)C | > 80 | –
– | 172 | Active | 5.6 | inactive | inactive | CCOC(=O)CC[C@@H](NC(=O)[C@@H](NC(=O)CNC(=O)/C=C/c1ccc(F)c(F)c1)C(C)C)C(=O)OCC | > 80 | –
– | – | Active | – | inactive | – | COC(=O)c1cc(NC(=O)[C@@H](NC(=O)CNC(=O)/C=C/c2ccc(O)c(OC)c2)C(C)C)cc(C(=O)OC)c1 | > 80 | –
Dose-dependent effect | 276 | Active | 5.2 | inactive | inactive | CCOC(=O)CC[C@@H](NC(=O)[C@H](Cc1ccccc1)NC(=O)CNC(=O)C1CC1c1ccc(F)c(F)c1)C(=O)OCC (some centres undefined) | > 80 | –
